Measurements reported in article PMC5964007 (Nature chemical biology, 2018).

How the values were obtained:
[1] = target: T1, E. coli penicillin amidase (Escherichia coli, UniProt P06875); assay: pH-shift colorimetric kinetic assay; format: biochemical; conditions: pH 8.4, 10 mM m-nitrophenol, 25 °C, 5 U/ml enzyme
[2] = target: T1, E. coli penicillin amidase; assay: pH-shift colorimetric kinetic assay; format: biochemical; conditions: 5 mM MOPS pH 7.2, 25 °C

T1 sequence (P06875 27-235): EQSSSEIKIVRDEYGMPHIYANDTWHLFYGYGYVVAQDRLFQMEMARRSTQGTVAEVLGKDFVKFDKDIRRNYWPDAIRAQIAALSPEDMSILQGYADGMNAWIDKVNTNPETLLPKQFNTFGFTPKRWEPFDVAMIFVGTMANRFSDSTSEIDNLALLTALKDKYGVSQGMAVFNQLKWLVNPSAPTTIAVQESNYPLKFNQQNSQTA
T1 sequence (P06875 290-846): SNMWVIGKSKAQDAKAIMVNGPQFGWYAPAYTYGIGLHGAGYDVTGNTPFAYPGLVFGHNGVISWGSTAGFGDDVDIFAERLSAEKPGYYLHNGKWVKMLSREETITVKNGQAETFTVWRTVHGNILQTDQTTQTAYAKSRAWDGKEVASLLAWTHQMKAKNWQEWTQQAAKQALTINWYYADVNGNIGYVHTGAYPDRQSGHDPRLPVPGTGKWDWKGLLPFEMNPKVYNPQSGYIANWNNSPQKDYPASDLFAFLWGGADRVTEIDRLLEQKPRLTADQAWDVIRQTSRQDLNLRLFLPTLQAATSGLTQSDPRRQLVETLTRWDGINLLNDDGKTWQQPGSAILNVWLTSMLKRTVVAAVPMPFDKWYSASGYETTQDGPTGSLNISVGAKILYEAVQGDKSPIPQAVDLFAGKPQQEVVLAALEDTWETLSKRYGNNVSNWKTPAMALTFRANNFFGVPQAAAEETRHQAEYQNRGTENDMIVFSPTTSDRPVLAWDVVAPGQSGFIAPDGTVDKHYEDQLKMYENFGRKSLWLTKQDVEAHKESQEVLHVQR

| Structure (SMILES) | pH-shift colorimetric kinetic assay (m-nitrophenol); LCMS [1] | pH-shift colorimetric kinetic assay (p-nitrophenol) [2] |
| --- | --- | --- |
| CC1(C)S[C@H]([C@H](NC(=O)Cc2ccccc2)C(=O)O)N[C@H]1C(=O)O [benzylpenicilloic acid] | when both Put1 and E. coli penicillin amidase were incubated with benzylpenicilloic acid as a substrate |  |
| CC1(C)S[C@@H]2[C@H](NC(=O)Cc3ccccc3)C(=O)N2[C@H]1C(=O)O [penicillin] |  | E. coli penicillin amidase and commercial B. cereus β-lactamase enzymes exhibit Michaelis-Menten kinetics with penicillin |
